Experimental data: PubChem BioAssay (NCI)
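Exposure lasted 48 hours, with cells grown in 96-well plates and compounds tested at five concentrations. GI50 is the concentration that inhibits growth by half. Definition used: TGI = concentration required for complete inhibition of growth.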

Experiments:
Assay in all cases: inhibition of tumour cell growth, NCI panel, 48 h
[1] = tested on: 786-0 renal
[2] = tested on: A498 renal
[3] = tested on: A549 NSCLC
[4] = tested on: ACHN renal
[5] = tested on: BT-549 breast
[6] = tested on: CAKI-1 renal
[7] = tested on: CCRF-CEM leukemia
[8] = tested on: COLO 205 colon
[9] = tested on: DU-145 prostate
[10] = tested on: EKVX NSCLC
[11] = tested on: HCC-2998 colon
[12] = tested on: HCT-116 colon
[13] = tested on: HCT-15 colon
[14] = tested on: HL-60(TB) leukemia
[15] = tested on: HOP-62 NSCLC
[16] = tested on: HOP-92 NSCLC
[17] = tested on: HS 578T breast
[18] = tested on: HT29 colon
[19] = tested on: IGROV1 ovarian
[20] = tested on: K-562 leukemia
[21] = tested on: KM12 colon
[22] = tested on: LOX IMVI melanoma
[23] = tested on: M14 melanoma
[24] = tested on: MALME-3M melanoma
[25] = tested on: MCF7 breast
[26] = tested on: MDA-MB-231 breast
[27] = tested on: MDA-MB-435
[28] = tested on: MOLT-4 leukemia
[29] = tested on: NCI-H226 lung
[30] = tested on: NCI-H23 lung
[31] = tested on: NCI-H460 lung
[32] = tested on: NCI-H522 lung
[33] = tested on: NCI/ADR-RES ovarian
[34] = tested on: OVCAR-3 ovarian
[35] = tested on: OVCAR-4 ovarian
[36] = tested on: OVCAR-5 ovarian
[37] = tested on: OVCAR-8 ovarian
[38] = tested on: PC-3 prostate
[39] = tested on: RPMI-8226 leukemia
[40] = tested on: RXF 393 renal
[41] = tested on: SF-268 CNS
[42] = tested on: SF-295 CNS
[43] = tested on: SF-539 CNS
[44] = tested on: SK-MEL-2 melanoma
[45] = tested on: SK-MEL-28 melanoma
[46] = tested on: SK-MEL-5 melanoma
[47] = tested on: SK-OV-3 ovarian
[48] = tested on: SN12C renal
[49] = tested on: SW-620 colon
[50] = tested on: T-47D breast
[51] = tested on: TK-10 renal
[52] = tested on: U251 CNS
[53] = tested on: UACC-257 melanoma
[54] = tested on: UACC-62 melanoma
[55] = tested on: UO-31 renal

Question: How did the GI50 [1] turn out when `Nc1ccccc1C#C/C=C\C#Cc1ccc(F)cc1F` was run?
Answer: The GI50 was 14.7 µM.

Question: And the TGI [1]?
Answer: The TGI was 28.7 µM.

Question: What about the GI50 [2] of the same compound?
Answer: The GI50 was 15.8 µM.

Question: And the TGI [2]?
Answer: The TGI was 31.9 µM.

Question: What about the GI50 [3] of the same compound?
Answer: The GI50 was 16.8 µM.

Question: And the TGI [3]?
Answer: The TGI was 67.7 µM.

Question: And the GI50 [4]?
Answer: Its GI50 is 16.6 µM.

Question: And the TGI [4]?
Answer: Its TGI is 32.2 µM.

Question: What about the GI50 [5] of the same compound?
Answer: The GI50 was 12.1 µM.

Question: What about the TGI [5] of the same compound?
Answer: Its TGI is 27.5 µM.

Question: What about the GI50 [6] of the same compound?
Answer: The GI50 was 3.13 µM.

Question: What about the TGI [6] of the same compound?
Answer: Its TGI is 14.7 µM.

Question: And the GI50 [7]?
Answer: Its GI50 is 0.444 µM.

Question: What about the TGI [7] of the same compound?
Answer: The TGI was 10.9 µM.

Question: And the GI50 [8]?
Answer: Its GI50 is 29.5 µM.

Question: What about the TGI [8] of the same compound?
Answer: The TGI was 82 µM.

Question: What about the GI50 [9] of the same compound?
Answer: The GI50 was 12.5 µM.

Question: And the TGI [9]?
Answer: The TGI was 33.8 µM.

Question: What about the GI50 [10] of the same compound?
Answer: The GI50 was 19.4 µM.

Question: And the TGI [10]?
Answer: The TGI was 57.8 µM.

Question: And the GI50 [11]?
Answer: Its GI50 is 2.57 µM.

Question: And the TGI [11]?
Answer: The TGI was 12.6 µM.

Question: And the GI50 [12]?
Answer: The GI50 was 15.4 µM.

Question: And the TGI [12]?
Answer: The TGI was 31.4 µM.

Question: What about the GI50 [13] of the same compound?
Answer: The GI50 was 14.1 µM.

Question: And the TGI [13]?
Answer: The TGI was 31.7 µM.

Question: And the GI50 [14]?
Answer: The GI50 was 21.8 µM.

Question: What about the TGI [14] of the same compound?
Answer: Its TGI is > 100 µM.

Question: What about the GI50 [15] of the same compound?
Answer: The GI50 was 16 µM.

Question: What about the TGI [15] of the same compound?
Answer: Its TGI is 30 µM.

Question: And the GI50 [16]?
Answer: The GI50 was 18.3 µM.

Question: What about the TGI [16] of the same compound?
Answer: The TGI was 59.7 µM.

Question: What about the GI50 [17] of the same compound?
Answer: The GI50 was 13.2 µM.

Question: What about the TGI [17] of the same compound?
Answer: The TGI was 30.5 µM.

Question: And the GI50 [18]?
Answer: Its GI50 is 31.1 µM.

Question: And the TGI [18]?
Answer: The TGI was > 100 µM.

Question: What about the GI50 [19] of the same compound?
Answer: Its GI50 is 12.7 µM.

Question: And the TGI [19]?
Answer: The TGI was 40.7 µM.

Question: What about the GI50 [20] of the same compound?
Answer: The GI50 was 4.98 µM.

Question: What about the TGI [20] of the same compound?
Answer: The TGI was > 100 µM.

Question: What about the GI50 [21] of the same compound?
Answer: Its GI50 is 4.17 µM.

Question: And the TGI [21]?
Answer: The TGI was 19.6 µM.

Question: What about the GI50 [22] of the same compound?
Answer: The GI50 was 6.41 µM.

Question: What about the TGI [22] of the same compound?
Answer: Its TGI is 19.9 µM.

Question: And the GI50 [23]?
Answer: Its GI50 is 16.5 µM.

Question: What about the TGI [23] of the same compound?
Answer: Its TGI is 32 µM.

Question: And the GI50 [24]?
Answer: The GI50 was 6.11 µM.

Question: What about the TGI [24] of the same compound?
Answer: The TGI was 22.5 µM.

Question: And the GI50 [25]?
Answer: The GI50 was 6.28 µM.

Question: And the TGI [25]?
Answer: The TGI was 38.5 µM.

Question: And the GI50 [26]?
Answer: Its GI50 is 15.1 µM.

Question: And the TGI [26]?
Answer: Its TGI is 33.3 µM.

Question: What about the GI50 [27] of the same compound?
Answer: Its GI50 is 2.38 µM.

Question: And the TGI [27]?
Answer: Its TGI is 6.19 µM.

Question: And the GI50 [28]?
Answer: Its GI50 is 3.05 µM.

Question: What about the TGI [28] of the same compound?
Answer: Its TGI is > 100 µM.

Question: What about the GI50 [29] of the same compound?
Answer: Its GI50 is 17.3 µM.

Question: And the TGI [29]?
Answer: The TGI was 35.8 µM.

Question: And the GI50 [30]?
Answer: The GI50 was 13.3 µM.

Question: What about the TGI [30] of the same compound?
Answer: The TGI was 32.2 µM.

Question: What about the GI50 [31] of the same compound?
Answer: The GI50 was 12.9 µM.

Question: And the TGI [31]?
Answer: The TGI was 28.7 µM.

Question: And the GI50 [32]?
Answer: Its GI50 is 13.8 µM.

Question: And the TGI [32]?
Answer: Its TGI is 35.2 µM.

Question: What about the GI50 [33] of the same compound?
Answer: Its GI50 is 6.22 µM.

Question: And the TGI [33]?
Answer: Its TGI is 21.1 µM.

Question: What about the GI50 [34] of the same compound?
Answer: Its GI50 is 6.2 µM.

Question: And the TGI [34]?
Answer: Its TGI is 21.4 µM.

Question: And the GI50 [35]?
Answer: Its GI50 is 37.1 µM.

Question: And the TGI [35]?
Answer: Its TGI is > 100 µM.

Question: And the GI50 [36]?
Answer: The GI50 was 14.8 µM.

Question: And the TGI [36]?
Answer: The TGI was 29.6 µM.

Question: What about the GI50 [37] of the same compound?
Answer: Its GI50 is 25.2 µM.

Question: And the TGI [37]?
Answer: The TGI was 84.3 µM.

Question: And the GI50 [38]?
Answer: The GI50 was 10.7 µM.

Question: And the TGI [38]?
Answer: Its TGI is 56.5 µM.

Question: What about the GI50 [39] of the same compound?
Answer: The GI50 was 1.36 µM.

Question: And the TGI [39]?
Answer: The TGI was 34.3 µM.

Question: What about the GI50 [40] of the same compound?
Answer: The GI50 was 18.4 µM.

Question: And the TGI [40]?
Answer: Its TGI is 43.2 µM.

Question: What about the GI50 [41] of the same compound?
Answer: Its GI50 is 5.95 µM.

Question: What about the TGI [41] of the same compound?
Answer: The TGI was 25.4 µM.

Question: And the GI50 [42]?
Answer: Its GI50 is 7.12 µM.

Question: What about the TGI [42] of the same compound?
Answer: The TGI was 24.8 µM.

Question: And the GI50 [43]?
Answer: The GI50 was 7.22 µM.

Question: And the TGI [43]?
Answer: Its TGI is 22.4 µM.

Question: And the GI50 [44]?
Answer: The GI50 was 23 µM.

Question: And the TGI [44]?
Answer: Its TGI is 58.1 µM.

Question: And the GI50 [45]?
Answer: The GI50 was 27 µM.

Question: What about the TGI [45] of the same compound?
Answer: Its TGI is 90.1 µM.

Question: What about the GI50 [46] of the same compound?
Answer: The GI50 was 9.69 µM.

Question: And the TGI [46]?
Answer: Its TGI is 25.3 µM.

Question: And the GI50 [47]?
Answer: The GI50 was 27.4 µM.

Question: And the TGI [47]?
Answer: The TGI was 66.7 µM.

Question: And the GI50 [48]?
Answer: Its GI50 is 12.3 µM.

Question: And the TGI [48]?
Answer: The TGI was 27.7 µM.

Question: And the GI50 [49]?
Answer: The GI50 was 36.9 µM.

Question: What about the TGI [49] of the same compound?
Answer: Its TGI is > 100 µM.

Question: And the GI50 [50]?
Answer: Its GI50 is 26 µM.

Question: What about the TGI [50] of the same compound?
Answer: Its TGI is > 100 µM.

Question: What about the GI50 [51] of the same compound?
Answer: Its GI50 is 11.2 µM.

Question: And the TGI [51]?
Answer: The TGI was 30.4 µM.

Question: And the GI50 [52]?
Answer: Its GI50 is 13.7 µM.

Question: And the TGI [52]?
Answer: The TGI was 26.5 µM.

Question: And the GI50 [53]?
Answer: The GI50 was 19.5 µM.

Question: What about the TGI [53] of the same compound?
Answer: Its TGI is 50 µM.

Question: What about the GI50 [54] of the same compound?
Answer: The GI50 was 14.6 µM.

Question: What about the TGI [54] of the same compound?
Answer: Its TGI is 32.5 µM.

Question: What about the GI50 [55] of the same compound?
Answer: The GI50 was 13.1 µM.

Question: What about the TGI [55] of the same compound?
Answer: Its TGI is 33 µM.
